Test results as given in patent US4540699A, “N-Substituted pyridinones having histamine H2 -antagonist activity” (Smith Kline & French Laboratories Limited, priority 1982, dated 1985).

Test system: histamine H2 -receptors
Test: inhibition of histamine-stimulated gastric acid secretion in urethane-anaesthetised rats after intraduodenal and intravenous injection
Assay type: in vivo, rat
Conditions: ratio intraduodenal/intravenous dose for 50% inhibition; rats anaesthetised with urethane
Protocol: The inhibition of histamine-stimulated secretion of gastric acid in rats anaesthetised with urethane was measured after administration of test compounds by intraduodenal injection and intravenous injection. For the compound of Example 2 the intraduodenal dose required to produce 50% inhibition was only 3 times the intravenous dose required to produce a similar effect, and for the compound of Example 10 the intraduodenal dose required was 10 times the intravenous dose. In contrast the compound of Example 7 of EP-A-3677 required an intraduodenal dose 500 times that of the intravenous dose required to inhibit acid secretion by 50%. Good activity after intraduodenal injection is indicative that there will good activity after oral administration.

Compound	intraduodenal dose required to produce 50% inhibition of acid secretion relative to the intravenous dose [times]
Cn1ccc(Cc2cnc(NCCCOc3cccc(CN4CCCCC4)c3)[nH]c2=O)cc1=O [Example 10, 2-[3-[3-(Piperidinomethyl)phenoxy]propylamino]-5-(1-methyl-2-oxopyridin-4-ylmethyl)pyrimidin-4-one]	10
CN(C)Cc1ccc(CSCCNc2ncc(Cc3ccn(C)c(=O)c3)c(=O)[nH]2)o1 [Example 2, 2-[2-(2-Dimethylaminomethyl-5-furylmethylthio)ethylamino]-5-(1-methyl-2-oxopyridin-4-ylmethyl)pyrimidin-4-one]	3
